Measurements published in patent US20090186915A1, “Compositions and methods for treatment of glioblastoma, gliosarcoma, NSCLC, and head and neck cancer” (Unibioscreen S. A., priority 2006, published 2009).
Several values for one entry are separate records, joined by “and”; a condition that tells them apart may be missing. Equal values may be shown once. Read-outs that look alike come from different tables or passages of the source.

Legend:
[1] = test system: PC-3; test: Senescence-associated β-galactosidase staining, PC-3; assay type: cell-based, human; conditions: 20 nM Adriamycin, 72 hours
Method: After the indicated treatments, cells were washed in PBS, fixed for 3 to 5 minutes (at room temperature) in 2% formaldehyde/0.2% glutaraldehyde, washed and incubated at 37° C. (in the absence of CO2) with fresh senescence-associated β-Gal (SA-β-Gal) staining solution: 1 mg/ml of 5-bromo-4-chloro-3-indolyl […] (X-Gal; Sigma). Staining was evident within 2 to 4 hours and maximal after 12 to 16 hours. To detect lysosomal β-Gal, the citric acid/sodium phosphate used was pH 4.0. As described in the study of Dimri et al. [Proc Natl Acad Sci USA. 1995; 92:9363-9367.], after fixing and staining with X-Gal, the number of cells positive for the SA-β-Gal activity (intense blue staining) was then counted independently by two different individuals (on 400 cells/plate). Representative photographs (original magnifications, ×20) of stained cells from different experimental treatments were taken. As a positive control for SA-β-Gal expression, Adriamycin-treated cells were used.
Human PC-3 and DU-145 prostate cancer cells cultured in 0 or 10 μM UNBS5162 or 20 nM Adriamycin for 72 hours were evaluated by SA-β-Gal staining. The data clearly indicate that 10 μM [but not 1 μM or 5×1 μM] […] TMZ, as an inducer of autophagy but not of senescence, was used as a negative control.

[2] = test system: PC3; test: MTT overall cell growth, PC3 cells; assay type: cell-based; conditions: Homo sapiens, 72 h; PC-3; 3 days of culturing; mean of six determinations; read-out: IC50 (μM) In Vitro Growth Inhibition
Method: Tests were performed in order to rapidly, i.e. within 5 days, measure the effect of the compound of example 2 on the overall cell growth. The test measures the number of metabolically active living cells that are able to transform the yellow product 3-(4,5-dimethylthiazol-2-yl)-2,5-diphenyl tetrazolium bromide (herein referred as MTT) into the blue product formazan dye by mitochondrial reduction. The amount of formazan obtained at the end of the experiment, measured by means of a spectrophotometer, is directly proportional to the number of living cells. Optical density determination thus enables a quantitative measurement of the effect of the investigated compounds as compared to the control condition (untreated cells) and/or to other reference compounds. […]
(§1) After 72 hours of incubation at 37° C. with (experimental conditions) or without (control condition) the compound to be tested, the medium was replaced by 100 μl MTT dissolved in RPMI (1640 without phenol red) at a concentration of 1 mg/ml. […] The micro-wells were shaken for 5 minutes and read on a spectrophotometer at wavelengths of 570 nm (maximum formazan absorbance) and 630 nm (back-ground noise).
For each experimental condition, the mean optical density was calculated, as well as the percentage of remaining living cells in comparison with the control. […]

[3] = test system: U-373MG; test: MTT overall cell growth, U-373MG cells; assay type: cell-based; conditions: Homo sapiens, 72 h; U373-MG; 3 days of culturing; mean of six determinations; read-out: IC50 (μM) In Vitro Growth Inhibition
Method: (§2) Tests were performed in order to rapidly, i.e. within 5 days, measure the effect of the compound of example 2 on the overall cell growth. The test measures the number of metabolically active living cells that are able to transform the yellow product 3-(4,5-dimethylthiazol-2-yl)-2,5-diphenyl tetrazolium bromide (herein referred as MTT) into the blue product formazan dye by mitochondrial reduction. The amount of formazan obtained at the end of the experiment, measured by means of a spectrophotometer, is directly proportional to the number of living cells. Optical density determination thus enables a quantitative measurement of the effect of the investigated compounds as compared to the control condition (untreated cells) and/or to other reference compounds.
(§3) Six human cancer cell lines described in table 1 were used in the following MTT tests. These cell lines cover six histological cancer types, being prostate, glioma, pancreas, colon, lung and breast cancers. Cells were allowed to grow in 96 well micro-wells with a flat bottom with an amount of 100 μl of cell suspension per well with 1,000 to 4,000 cells/well depending on the cell type used. Each cell line was seeded in a well known MEM 10% serum culture medium. […]
as §1
(§4) For each experimental condition, the mean optical density was calculated, as well as the percentage of remaining living cells in comparison with the control.
(§5) The overall growth of human cancer cell lines was determined by means of the calorimetric MTT (3-[4,5-dimethylthiazol-2-yl]-diphenyl tetrazolium bromide; Sigma) assay, as detailed previously.

[4] = test system: BxPC3; test: MTT overall cell growth, BxPC3 cells; assay type: cell-based; conditions: Homo sapiens, BXPC-3, 72 h; Bx-PC-3; 3 days of culturing; mean of six determinations; read-out: IC50 (μM) In Vitro Growth Inhibition
Method: as §2, §3, §1, §4, §5

[5] = test system: DU-145; test: MTT colorimetric assay, DU-145 cells; assay type: cell-based; conditions: Homo sapiens, 72 h, 3 days of culturing, mean of six determinations, read-out: IC50 (μM) In Vitro Growth Inhibition
Method: as §5

[6] = test system: Hs683; test: MTT colorimetric assay, Hs683 cells; assay type: cell-based; conditions: Homo sapiens, Hs 683, 72 h, 3 days of culturing, mean of six determinations, read-out: IC50 (μM) In Vitro Growth Inhibition
Method: as §5

[7] = test system: HCT-15; test: MTT colorimetric assay, HCT-15 cells; assay type: cell-based; conditions: Homo sapiens, 72 h, 3 days of culturing, mean of six determinations, read-out: IC50 (μM) In Vitro Growth Inhibition
Method: as §5

[8] = test system: LoVo; test: MTT colorimetric assay, LoVo cells; assay type: cell-based; conditions: Homo sapiens, 72 h, 3 days of culturing, mean of six determinations, read-out: IC50 (μM) In Vitro Growth Inhibition
Method: as §5

[9] = test system: MCF-7; test: MTT colorimetric assay, MCF-7 cells; assay type: cell-based; conditions: Homo sapiens, MCF7, 72 h, 3 days of culturing, mean of six determinations, read-out: IC50 (μM) In Vitro Growth Inhibition
Method: as §5

[10] = test system: A549; test: MTT colorimetric assay, A549 cells; assay type: cell-based; conditions: Homo sapiens, 72 h, 3 days of culturing, mean of six determinations, read-out: IC50 (μM) In Vitro Growth Inhibition
Method: as §5

[11] = test system: nine human cancer cell lines; test: MTT colorimetric assay, mean of nine cell lines; assay type: cell-based; conditions: mean over nine human cancer cell lines, read-out: mean antiproliferative activity IC50
Method: as §5
UNBS3157 and UNBS5162 display weak antiproliferative activity in vitro.

[12] = test system: P-glycoprotein; test: P-gp ATPase activity (P-gp Drug interaction Assay Kit); assay type: biochemical
Method: In order to test drug interaction with P-glucoprotein (herein-after referred as P-gp) we used an assay based on the study of modulation of ATPase activity from enriched P-gp membrane vesicle preparation (the following kit has been used: P-gp Drug interaction Assay Kit commercially available from SPI BIO France). P-gp ATPase activity was measured by a spectrophotometric method based on monitoring of ADP formation in the vesicle suspension medium. The basal ATPase activity was defined as the activity determined in the absence of any added drug. […]

[13] = test system: human PC-3 orthotopic xenografts
Method: (§6) Orthotopic xenografts were obtained by injecting 2.5×10^6 human PC-3 or DU-145 cells into the prostate of 6-week-old male nu/nu mice (n=9 animals per treatment group). All grafts were performed under anesthesia [saline/Rompun (Bayer, Leverkusen, Germany)/Imalgene (Merial, Lyons, France); 5:1:1 by volume]. The end point in these orthotopic experiments was the survival period of the tumor-bearing mice after the administration of UNBS3157, UNBS5162, or reference anticancer agents (taxol, mitoxantrone, and amonafide). However, for ethical reasons, animals were killed when 20% of body weight had been lost compared to that determined at the time of tumor grafting. All animals were weighed three times a week. […] In the case of UNBS5162 experiments in the PC-3 model, after the sacrifice of animals, tumors were removed from both drug-treated [10 mg/kg, intravenous (i.v.)] and vehicle-treated mice, fixed in buffered formalin, embedded in paraffin, and 5-μm-thick sections taken. These histologic slides were then stained with hematoxylin and eosin for blood vessel counts.

[14] = test system: human DU-145 orthotopic xenografts; test: Orthotopic DU-145 prostate cancer xenograft, survival; assay type: in vivo, nu/nu mice; conditions: DU-145 orthotopic model
Method: as §6

[15] = In vitro stability of UNBS3157 in saline/DMSO; assay type: physicochemical; conditions: physiological saline/DMSO (95:5 v/v), 37° C.
[16] = test system: platelets, red and white blood cells; test: Compound-induced hematotoxicity and tolerance in mice; assay type: in vivo; conditions: five times a week for three weeks
Method: We have determined the compound-induced potential hematotoxicity of the compound produced according to example 2 or example 7 on platelets, red and white blood cells in comparison of the effect of amonafide on platelets, red and white blood cells. The effect of amonafide was evaluated at 10 mg/kg and 20 mg/kg, by the intra-peritoneal administration to mice. The administration schedule was five times a week for three consecutive weeks. The effect of the compound produced according to example 2 or example 7 was evaluated at 20 mg/kg, by the intra-venous administration to mice. The administration schedule was three times a week (on Mondays, Wednesdays and Fridays) for five consecutive weeks. The animals were sacrificed 3 days after the last injection. There were 10 mice per group. FIG. 1 illustrates results of this assay for compound-induced hematotoxicity on platelets.

[17] = test system: human A549 NSCLC orthotopic; conditions: Taxol i.v. 20 mg/kg (1i × 3w)
Method: The purpose of the present study was to evaluate the in vivo efficacy of UNBS5162 on human A549 NSCLC orthotopic nude mice model. The endpoint in this experiment was the survival period of the tumor-bearing mice following treatment, as indicated.
The experiment comprised 6 groups of II mice, one group with mice receiving the vehicle only (Ct group) and 5 groups receiving the treatments as indicated in the Table 13. UNBS5162 was dosed i.v. at 10 mg/kg (in lactic acid vehicle). Taxol (Paclitaxel 6 mg/mL, Bristol-Myers Squibb) was dosed i.v. at 20 mg/kg.

SMILES: COc1cccc2c1C(=O)c1c(O)c3c(c(O)c1C2=O)C[C@@](O)(C(=O)CO)C[C@@H]3O[C@H]1C[C@H](N)[C@H](O)[C@H](C)O1 [Adriamycin, doxorubicin, reference compound]
- SA-β-Gal expression [1]: Limited SA-β-Gal expression

SMILES: CN(C)CCN1C(=O)c2cccc3cc(NC(=O)NC(=O)C(Cl)(Cl)Cl)cc(c23)C1=O [UNBS3157, 2,2,2-trichloro-N-[({2-[2-(dimethylamino)ethyl]-1,3-dioxo-2,3-dihydro-1H-benzo[de]isoquinolin-5-yl}amino)carbonyl]acetamide]
- IC50 [2]: 15.1 µM
- IC50 [3]: 3.9 µM
- IC50 [4]: 17.2 µM
- IC50 [5]: 23 µM
- IC50 [6]: 9.9 µM
- IC50 [7]: 29.3 µM
- IC50 [8]: 26.4 µM
- IC50 [9]: 44.3 µM
- IC50 [10]: 8.7 µM
- IC50 [11]: 19.8 µM
- modulation of Pgp ATPase activity ([12]; 100 μM (data not shown)): do not affect Pgp ATPase activity
- % T/C ([13]; PC-3 orthotopic model, 40 mg/kg p.o.): 100%
- % T/C ([13]; PC-3 orthotopic model, 160 mg/kg orally): 151%
- % T/C ([14]; 20 mg/kg i.v.): 143%
- % T/C ([14]; 40 mg/kg orally): 164%
- production of amonafide on hydrolysis ([15]; 22-hour incubation): without production of amonafide
- hydrolyzed to UNBS5162 ([15]; in 270 minutes, 10^−4 M): 90%

SMILES: CN(C)CCN1C(=O)c2cccc3cc(N)cc(c23)C1=O [amonafide]
- tolerance of chronic administrations ([16]; 10 mg/kg intra-peritoneal): tolerated 15 chronic administrations
- tolerance of chronic administrations ([16]; 20 mg/kg intra-peritoneal): all animals died before receiving the complete set of 15 administrations
- modulation of basal P-gp ATPase activity ([12]; 50 μM): significantly alter the ATPase activity
- % T/C ([13]; PC-3 orthotopic model, 40 mg/kg p.o., 40 mg/kg): 103% and 107%
- activity (survival) ([14]; 20 mg/kg i.v. and lower doses): inactive
- % T/C ([14]; 40 mg/kg orally): 138%

SMILES: O=C1c2c(O)ccc(O)c2C(=O)c2c(NCCNCCO)ccc(NCCNCCO)c21 [mitoxantrone, reference compound]
- therapeutic benefit (survival) ([13]; PC-3 orthotopic model, mitoxantrone i.v.): failed to contribute any therapeutic benefit
- toxicity ([13]; mouse, in vivo, iv, 2.5 mg/kg): highly toxic

SMILES: CC(=O)O[C@H]1C(=O)[C@@]2(C)[C@H]([C@H](OC(=O)c3ccccc3)[C@]3(O)C[C@H](OC(=O)[C@H](O)[C@@H](NC(=O)c4ccccc4)c4ccccc4)C(C)=C1C3(C)C)[C@]1(OC(C)=O)CO[C@@H]1C[C@@H]2O [taxol, reference compound]
- % T/C ([14]; 20 mg/kg i.v.): 146%
- T/C (%) [17]: 128%
